Measured values as given in article PMC10954709, “Structure of an open KATP channel reveals tandem PIP2 binding sites mediating the Kir6.2 and SUR1 regulatory interface” (Nature Communications, 2024).

Columns and labels:
[1] = test system: Kir6.2^Q52R KATP channel; set-up: method as in PMID 16123353, PMID 15583126; conditions: Kir6.2^Q52R relative to WT; cited from earlier work
[2] = test system: KATP channel with engineered Kir6.2-Q52/SUR1-E203 charged amino acid pair; set-up: method as in PMID 22802363; conditions: engineered charged amino acid pair enforcing Kir6.2-Q52 and SUR1-E203 interaction; cited from earlier work
[3] = target: T1, SUR1/Kir6.2^R176A channel (UniProt P70673+Q09427, R176A); assay: ATP inhibition, inside-out patch-clamp recording, COSm6 cells; type: biochemical, rat Kir6.2, hamster SUR1; conditions: for % current: mean, relative to maximum current in K-INT
T1 construct: expressed in transfected cells; host or cells: COSm6
T1 sequence (Q09427 whole entry): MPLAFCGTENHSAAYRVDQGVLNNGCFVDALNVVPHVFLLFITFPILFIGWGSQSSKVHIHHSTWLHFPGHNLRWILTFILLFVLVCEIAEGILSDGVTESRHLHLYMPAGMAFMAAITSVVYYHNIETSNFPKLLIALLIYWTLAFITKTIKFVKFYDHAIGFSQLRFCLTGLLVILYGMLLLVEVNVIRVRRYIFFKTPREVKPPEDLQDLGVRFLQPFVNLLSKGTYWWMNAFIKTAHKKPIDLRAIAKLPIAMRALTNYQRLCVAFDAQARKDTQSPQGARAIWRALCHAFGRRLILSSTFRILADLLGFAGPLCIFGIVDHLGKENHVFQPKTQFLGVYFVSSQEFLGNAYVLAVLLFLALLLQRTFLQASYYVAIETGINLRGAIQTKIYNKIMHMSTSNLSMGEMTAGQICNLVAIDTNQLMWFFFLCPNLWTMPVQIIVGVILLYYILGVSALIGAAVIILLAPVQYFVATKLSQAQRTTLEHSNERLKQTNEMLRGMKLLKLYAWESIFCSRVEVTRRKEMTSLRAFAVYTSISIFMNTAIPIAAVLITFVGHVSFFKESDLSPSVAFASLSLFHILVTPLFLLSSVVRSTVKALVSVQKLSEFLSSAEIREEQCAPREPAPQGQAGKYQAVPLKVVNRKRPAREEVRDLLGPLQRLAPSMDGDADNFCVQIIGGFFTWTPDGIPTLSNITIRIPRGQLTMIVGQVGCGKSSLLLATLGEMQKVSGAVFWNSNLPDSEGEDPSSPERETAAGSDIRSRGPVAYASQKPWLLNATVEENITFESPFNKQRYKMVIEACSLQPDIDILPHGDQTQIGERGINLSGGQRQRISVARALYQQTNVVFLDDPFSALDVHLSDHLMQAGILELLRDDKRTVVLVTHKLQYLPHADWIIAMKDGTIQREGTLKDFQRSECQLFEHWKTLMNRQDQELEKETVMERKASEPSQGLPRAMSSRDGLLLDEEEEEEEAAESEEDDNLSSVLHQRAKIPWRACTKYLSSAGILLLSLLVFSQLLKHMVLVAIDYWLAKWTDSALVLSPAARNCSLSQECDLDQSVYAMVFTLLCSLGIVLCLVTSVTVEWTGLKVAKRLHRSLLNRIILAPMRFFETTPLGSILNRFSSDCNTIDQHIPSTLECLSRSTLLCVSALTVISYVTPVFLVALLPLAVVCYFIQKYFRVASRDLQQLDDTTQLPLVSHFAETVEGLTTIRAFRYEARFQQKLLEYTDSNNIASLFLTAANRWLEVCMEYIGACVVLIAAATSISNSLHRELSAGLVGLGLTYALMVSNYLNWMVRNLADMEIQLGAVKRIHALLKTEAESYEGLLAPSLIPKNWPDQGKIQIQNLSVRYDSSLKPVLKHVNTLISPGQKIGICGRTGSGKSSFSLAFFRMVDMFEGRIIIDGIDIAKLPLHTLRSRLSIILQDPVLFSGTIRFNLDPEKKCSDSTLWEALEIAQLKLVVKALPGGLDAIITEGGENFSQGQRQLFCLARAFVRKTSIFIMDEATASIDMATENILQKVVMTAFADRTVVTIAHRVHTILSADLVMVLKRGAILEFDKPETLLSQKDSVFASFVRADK
T1 sequence (P70673 whole entry R176A): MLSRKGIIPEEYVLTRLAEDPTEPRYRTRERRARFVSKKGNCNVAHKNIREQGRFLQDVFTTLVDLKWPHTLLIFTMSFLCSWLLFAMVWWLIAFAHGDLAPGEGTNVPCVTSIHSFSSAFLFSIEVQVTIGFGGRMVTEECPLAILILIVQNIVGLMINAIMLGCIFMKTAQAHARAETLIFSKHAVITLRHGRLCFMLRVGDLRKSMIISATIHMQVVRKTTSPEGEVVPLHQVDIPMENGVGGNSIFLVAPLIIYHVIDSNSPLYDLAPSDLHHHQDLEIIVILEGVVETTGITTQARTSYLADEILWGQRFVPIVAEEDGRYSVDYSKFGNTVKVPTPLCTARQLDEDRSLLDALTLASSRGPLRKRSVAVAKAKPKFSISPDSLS
Method: (§1) For electrophysiology experiments, COSm6 cells were co-transfected with various combination of WT or mutant SUR1 and Kir6.2 cDNAs (SUR1 in pECE and Kir6.2 in pCDNA3) along with the cDNA for the Green Fluorescent Protein (to facilitate identification of transfected cells) using FuGENE® 6 (Promega). Mutant SUR1 and Kir6.2 were constructed using QuikChange (mutagenesis primers are shown in Supplementary Table 2). Cells were plated onto glass coverslips 24 h after transfection and recordings made in the following two days. All experiments were performed at room temperature. Micropipettes were pulled from non-heparinized Kimble glass (Fisher Scientific) on a horizontal puller (Sutter Instrument). Electrode resistance was typically 1-2 MΩ when filled with K-INT solution containing 140 mM KCl, 10 mM K-HEPES, 1 mM K-EGTA, 1 mM EDTA, pH 7.3. ATP was added as the potassium salt. Inside-out patches of cells bathed in K-INT were voltage-clamped with an Axopatch 1D amplifier (Axon Instruments). ATP or porcine brain PIP2 (Avanti Polar Lipids; prepared in K-INT and bath sonicated in ice water for 30 min before use) were added to K-INT as specified in the figure legend. All currents were measured at a membrane potential of −50 mV (pipette voltage = +50 mV). Data were analyzed using pCLAMP10 software (Axon Instrument). Off-line analysis was performed using Clampfit and GraphPad. Data were presented as mean ± standard error of the mean (S.E.M). ATP inhibition dose-response curves were obtained by fitting data to the Hill equation (Irel = 1/(1 + ([ATP]/IC50)^H)), where Irel is the current relative to the maximum currents in K-INT solution (expressed as % current in Fig. 7c and Supplementary Fig. 7a), IC50 is the ATP concentration that causes half-maximal inhibition, and H is the Hill coefficient. Note H was allowed to vary for the curves shown in Fig. 7c and Supplementary Fig. 7a.

[4] = target: T2, SUR1^W51C/Kir6.2 channel (UniProt P70673+Q09427, W51C); assay: as above; type: biochemical, rat Kir6.2, hamster SUR1; conditions: for % current: mean, relative to maximum current in K-INT
T2 construct: expressed in transfected cells; host or cells: COSm6
T2 sequence (P70673 whole entry): as the sequence (P70673 whole entry R176A) above, with A176R counted along it
T2 sequence (Q09427 whole entry W51C): as the sequence (Q09427 whole entry) above, with W51C counted along it
Method: as §1

[5] = target: T3, SUR1^W51C/Kir6.2^Q52R channel (UniProt P70673+Q09427, Q52R/W51C); assay: as above; type: biochemical, rat Kir6.2, hamster SUR1; conditions: for % current: mean, relative to maximum current in K-INT
T3 construct: expressed in transfected cells; host or cells: COSm6
T3 sequence (P70673 whole entry Q52R): as the sequence (P70673 whole entry R176A) above, with Q52R, A176R counted along it
T3 sequence (Q09427 whole entry W51C): as the sequence (Q09427 whole entry) above, with W51C counted along it
Method: as §1

[6] = target: T4, WT (SUR1/Kir6.2) KATP channels (UniProt P70673+Q09427); assay: as above; type: biochemical, rat Kir6.2, hamster SUR1; conditions: for % current: mean, relative to maximum current in K-INT
T4 construct: expressed in transfected cells; host or cells: COSm6
T4 sequence (P70673 whole entry): as the sequence (P70673 whole entry R176A) above, with A176R counted along it
T4 sequence (Q09427 whole entry): as the sequence (Q09427 whole entry) above
Method: as §1

[7] = target: T5, SUR1^K134A/Kir6.2^Q52R/R176A channel (UniProt P70673+Q09427, K134A/Q52R/R176A); assay: as above; type: biochemical, rat Kir6.2, hamster SUR1; conditions: for % current: relative to maximum current in K-INT
T5 construct: expressed in transfected cells; host or cells: COSm6
T5 sequence (Q09427 whole entry K134A): as the sequence (Q09427 whole entry) above, with K134A counted along it
T5 sequence (P70673 whole entry Q52R/R176A): as the sequence (P70673 whole entry R176A) above, with Q52R counted along it
Method: as §1

[8] = target: T6, SUR1^K134A/Kir6.2 channel (UniProt P70673+Q09427, K134A); assay: as above; type: biochemical, rat Kir6.2, hamster SUR1; conditions: for % current: mean, relative to maximum current in K-INT
T6 construct: expressed in transfected cells; host or cells: COSm6
T6 sequence (Q09427 whole entry K134A): as the sequence (Q09427 whole entry) above, with K134A counted along it
T6 sequence (P70673 whole entry): as the sequence (P70673 whole entry R176A) above, with A176R counted along it
Method: as §1

[9] = target: T7, SUR1/Kir6.2^Q52R channel (UniProt P70673+Q09427, Q52R); assay: as above; type: biochemical, rat Kir6.2, hamster SUR1; conditions: for % current: mean, relative to maximum current in K-INT
T7 construct: expressed in transfected cells; host or cells: COSm6
T7 sequence (P70673 whole entry Q52R): as the sequence (P70673 whole entry R176A) above, with Q52R, A176R counted along it
T7 sequence (Q09427 whole entry): as the sequence (Q09427 whole entry) above
Method: as §1

[10] = target: T8, SUR1^K134A/Kir6.2^Q52R channel (UniProt P70673+Q09427, K134A/Q52R); assay: as above; type: biochemical, rat Kir6.2, hamster SUR1; conditions: for % current: mean, relative to maximum current in K-INT
T8 construct: expressed in transfected cells; host or cells: COSm6
T8 sequence (P70673 whole entry Q52R): as the sequence (P70673 whole entry R176A) above, with Q52R, A176R counted along it
T8 sequence (Q09427 whole entry K134A): as the sequence (Q09427 whole entry) above, with K134A counted along it
Method: as §1

[11] = target: T9, SUR1/Kir6.2^Q52R/R176A channel (UniProt P70673+Q09427, Q52R/R176A); assay: as above; type: biochemical, rat Kir6.2, hamster SUR1; conditions: for % current: mean, relative to maximum current in K-INT
T9 construct: expressed in transfected cells; host or cells: COSm6
T9 sequence (Q09427 whole entry): as the sequence (Q09427 whole entry) above
T9 sequence (P70673 whole entry Q52R/R176A): as the sequence (P70673 whole entry R176A) above, with Q52R counted along it
Method: as §1

[12] = mean ± SEM, Hill fit, −50 mV, K-INT

Nc1ncnc2c1ncn2[C@@H]1O[C@H](COP(=O)(O)OP(=O)(O)OP(=O)(O)O)[C@@H](O)[C@H]1O [ATP]
decrease in channel sensitivity to ATP inhibition [1]: 20 fold
reduction of ATP inhibition IC50 [2]: 100 fold
% current ([3]; ATP 1 μM): 83.45%
% current ([3]; ATP 10 μM): 56.97%
% current ([3]; ATP 100 μM): 7.94%
% current ([3]; ATP 1 mM): 6.02%
% current ([3]; ATP 2 mM): 1.48%
Hill coefficient (H) of ATP inhibition ([3]; Hill fit, H allowed to vary): 0.84
IC50 [3, 12]: 11.3 ± 1.95 µM
% current ([4]; ATP 1 μM): 94.89%
% current ([4]; ATP 10 μM): 75.92%
% current ([4]; ATP 100 μM): 6.20%
% current ([4]; ATP 200 μM): 6.36%
% current ([4]; ATP 1 mM): 1.93%
% current ([4]; ATP 2 mM): 3.08%
% current ([4]; ATP 5 mM): 0%
IC50 [4, 12]: 20.9 ± 1.96 µM
% current ([5]; ATP 1 μM): 97.59%
% current ([5]; ATP 10 μM): 45.50%
% current ([5]; ATP 100 μM): 6.41%
% current ([5]; ATP 1 mM): 1.99%
% current ([5]; ATP 2 mM): 0.62%
% current ([5]; ATP 5 mM): 1.82%
IC50 [5, 12]: 8.98 ± 0.49 µM
% current ([6]; ATP 1 μM): 84.78%
% current ([6]; ATP 10 μM): 39.13%
% current ([6]; ATP 100 μM): 7.09%
% current ([6]; ATP 200 μM): 3.13%
% current ([6]; ATP 1 mM): 4.17%
% current ([6]; ATP 2 mM): 0.65%
% current ([6]; ATP 5 mM): 2.98%
Hill coefficient (H) of ATP inhibition ([6]; Hill fit, H allowed to vary): 0.93
IC50 [6, 12]: 6.25 ± 0.44 µM
% current ([7]; ATP 1 μM, one cell): 40.58%
% current ([7]; ATP 10 μM, mean): 44.57%
% current ([7]; ATP 100 μM, mean): 4.58%
% current ([7]; ATP 1 mM, mean): -0.08%
% current ([7]; ATP 5 mM, mean): 0.00%
Hill coefficient (H) of ATP inhibition ([7]; Hill fit, H allowed to vary): 1.18
IC50 [7, 12]: 8.3 ± 1.11 µM
% current ([8]; ATP 1 μM): 90.28%
% current ([8]; ATP 10 μM): 19.80%
% current ([8]; ATP 100 μM): 5.33%
% current ([8]; ATP 200 μM): 0.84%
% current ([8]; ATP 1 mM): 0.93%
% current ([8]; ATP 2 mM): 0.25%
Hill coefficient (H) of ATP inhibition ([8]; Hill fit, H allowed to vary): 1.54
IC50 [8, 12]: 4.12 ± 0.3 µM
% current ([9]; ATP 10 μM): 94.34%
% current ([9]; ATP 100 μM): 77.97%
% current ([9]; ATP 200 μM): 34.77%
% current ([9]; ATP 1 mM): 15.08%
% current ([9]; ATP 2 mM): 2.12%
% current ([9]; ATP 5 mM): 2.88%
Hill coefficient (H) of ATP inhibition ([9]; Hill fit, H allowed to vary): 2.34
IC50 [9, 12]: 161 ± 16.2 µM
% current ([10]; ATP 1 μM): 98.42%
% current ([10]; ATP 10 μM): 90.13%
% current ([10]; ATP 100 μM): 32.09%
% current ([10]; ATP 200 μM): 5.40%
% current ([10]; ATP 1 mM): 0.80%
% current ([10]; ATP 5 mM): 0.06%
Hill coefficient (H) of ATP inhibition ([10]; Hill fit, H allowed to vary): 1.55
IC50 [10, 12]: 54.1 ± 7.14 µM
% current ([11]; ATP 1 μM): 93.65%
% current ([11]; ATP 10 μM): 70.34%
% current ([11]; ATP 100 μM): 6.88%
% current ([11]; ATP 200 μM): 3.51%
% current ([11]; ATP 1 mM): 0.92%
% current ([11]; ATP 2 mM): 0.12%
Hill coefficient (H) of ATP inhibition ([11]; Hill fit, H allowed to vary): 1.41
IC50 [11, 12]: 18 ± 1.2 µM
